These results are taken from PubChem BioAssay (NCI).

Holding throughout (assay): growth of human tumour cells (NCI), 48 h
Experiment [1] concerns OVCAR-3 ovarian.
Experiment [2] concerns NCI-H226 lung.
The test system of experiment [3] is IGROV1 ovarian.
The test system of experiment [4] is BT-549 breast.
Experiment [5] has as its system SK-MEL-28 melanoma.
The test system of experiment [6] is MDA-N.
Experiment [7] relates to MDA-MB-231 breast.
Experiment [8] concerns RXF 393 renal.
In experiment [9] the test system is ACHN renal.

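96-well plates; 48 h exposure; 5 concentrations. Endpoints by linear interpolation between flanking doses. Not reached: highest tested concentration assigned. TGI: total growth inhibition.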 Where a SMILES comes first, the peptide text is derived from it. [ ]: non-standard residue; d: D form. The star is where a group is joined. Phe(4-NO2) = N[CH](Cc1ccc([N+](=O)[O-])cc1)C(=O)O; Boc = CC(C)(C)OC(=O)*

Consider `CCOC(=O)c1cc2c3c(c(C(C)=O)c(OC)c2[nH]1)N(C(=O)CC)CC3`, for which the TGI came out at 34.4 µM in [1]; 34.2 µM in experiment [2]; 30 µM in experiment [3]; 47.1 µM in [4]; 44.7 µM in [5]; 39.4 µM in [6]. The TGI in experiment [7] amounted to 40.9 µM; in experiment [8] it was 37.2 µM.
As for `CCOC(=O)CCC(NC(=O)C(Cc1ccc([N+](=O)[O-])cc1)NC(=O)OC(C)(C)C)C(=O)NC(CCC(=O)OCC)C(=O)OCC` (stereo unspecified) (Boc-[Phe(4-NO2)]-Glu(OEt)-Glu(OEt)-OEt; configuration not given here), the TGI in experiment [2] turned out to be 35.9 µM; in [3], 38.3 µM; in [9], 31.1 µM; in experiment [4], 45.1 µM; in experiment [5], 32.1 µM; in experiment [6], 52.6 µM. For the same compound, the TGI in experiment [7] was above 100 µM; in experiment [8], 30.2 µM.
For `C=CC(C)(C)/C=C/c1ccc(O)cc1`, the TGI in experiment [1], in [3], in experiment [9], in experiment [4], in experiment [5] and in experiment [6] was above 100 µM each time. In addition, the TGI in [7] and in [8] was above 100 µM each time.
As for `Cc1cc(C)nc(NS(=O)(=O)c2ccc(NNc3c4ccccc4nc4c(C(=O)Nc5ccc(S(=O)(=O)Nc6cc(C)on6)cc5)cccc34)cc2)n1`, the TGI in [1] is 47.2 µM; in experiment [2] it was 63.8 µM; in experiment [3], above 100 µM; in [9] it was above 100 µM; in experiment [4] it was above 100 µM; in [6] it was above 100 µM. In addition, the TGI in [7] was 94.4 µM; in experiment [8], above 100 µM.
`CCOC(=O)c1c(N2CCCC2)[nH]c(=O)c(C(c2ccc(N(C)C)cc2)c2c(O)c(C(=O)OCC)c(N3CCCC3)[nH]c2=O)c1O`: the TGI in [1], in experiment [2], in [9], in experiment [4], in experiment [5] and in experiment [6] was above 100 µM throughout. For the same compound, the TGI in [7] and in experiment [8] was above 100 µM in each case.
With `O=c1cc(N2CCOCC2)n2c(ccc3ccccc32)n1`, the TGI in [1] is above 100 µM; in experiment [2] it was above 100 µM; in experiment [3], above 100 µM; in experiment [9], above 100 µM; in [4], above 100 µM; in experiment [6], 63 µM. In addition, the TGI in [7] and in [8] was above 100 µM in each case.
`COc1c(C)c(C/C=C(\C)CCCC(C)CCCC(C)CCCC(C)C)c(OC)c2ccccc12` (stereo unspecified): the TGI in experiment [1], in experiment [3], in experiment [9], in [4], in experiment [6] and in [7] was above 100 µM in each case. The TGI in [8] was above 100 µM.
Consider `Cc1cc(S(=O)(=O)Nc2nc3cscc3c(=O)n2N)c(S)cc1Cl`, for which the TGI is above 100 µM in experiment [1]; 48.5 µM in [2]; above 100 µM in experiment [3]; above 100 µM in [9]; above 100 µM in [4]; above 100 µM in experiment [5]. Further, the TGI in experiment [6] and in experiment [7] was above 100 µM each time.
Regarding `O=c1[nH]c2ccccc2c(O)c1/C=N/C(=S)NC1CCCCC1`, the TGI in experiment [1], in experiment [2], in experiment [3], in experiment [9], in experiment [4] and in experiment [6] was above 100 µM in each case. Also, the TGI in experiment [7] and in experiment [8] was above 100 µM throughout.
Take `COC(=O)C(Cc1c[nH]c2ccccc12)NC(=O)C(Cc1c[nH]c2ccccc12)NC(=O)C(Cc1c[nH]c2ccccc12)NC(=O)C(Cc1c[nH]c2ccccc12)NC(=O)C(Cc1c[nH]c2ccccc12)NC(=O)C(Cc1c[nH]c2ccccc12)NC(=O)C(Cc1c[nH]c2ccccc12)NC(=O)OC(C)(C)C` (stereo unspecified) (Boc-WWWWWWW-OMe; configuration not given here): the TGI in experiment [1], in [2], in experiment [3], in experiment [9], in experiment [4] and in experiment [5] was above 100 µM throughout. Moreover, the TGI in [6] and in experiment [7] was above 100 µM throughout.
As for `CCOC(=O)CCc1cn2cc(Br)nc(OC)c2n1`, the TGI in experiment [1] was above 100 µM; in [2], above 100 µM; in [3], above 100 µM; in experiment [4], above 100 µM; in [5] it was above 100 µM; in [6] it was 12.6 µM. Besides, the TGI in experiment [7] and in [8] was above 100 µM in each case.
Turning to `COc1cccc2c1OC1c3ccccc3OCC1(O)C2` (stereo unspecified), the TGI in [1], in [2], in experiment [3], in experiment [9], in experiment [4] and in experiment [6] was above 100 µM each time. The same compound came in with a TGI in [7] above 100 µM.
Regarding `c1ccc2c(Nc3ncco3)cccc2c1`, the TGI in [1], in experiment [2], in experiment [3], in experiment [9], in experiment [4] and in experiment [5] was above 10 µM throughout. Further, the TGI in [6] and in [7] was above 10 µM in each case.
With `[N-]=[N+]=Nc1nc2ccccc2c(N=[N+]=[N-])c1Cl`, the TGI in experiment [1] is above 100 µM; in experiment [3], above 100 µM; in experiment [9], above 100 µM; in experiment [4] it was 89.6 µM; in experiment [5] it was above 100 µM; in experiment [6], above 100 µM. For the same compound, the TGI in experiment [7] and in experiment [8] was above 100 µM throughout.
Regarding `COc1ccc(-n2c(N)c(C#N)c(C#N)c2-c2ccco2)cc1`, the TGI in experiment [1], in experiment [2], in [3], in experiment [9], in experiment [4] and in experiment [6] was above 100 µM throughout. In addition, the TGI in experiment [7] and in experiment [8] was above 100 µM each time.
Turning to `O=C(O)CSC1=NNC2(C(=O)N1)c1ccccc1-c1ccccc12`, the TGI in [2], in experiment [3], in [9], in experiment [4], in experiment [5] and in experiment [6] was above 10 µM each time. For the same compound, the TGI in experiment [7] and in experiment [8] was above 10 µM throughout.
